US20070014721A1, “Hydrazide conjugates as imaging agents” (priority 2005, published 2007)
*1 amine or outer side, *2 acyl side, *3 side chain or, on linkers, in order; H or OH if unused. Where a SMILES comes first, the peptide text is derived from it. [ ]: non-standard residue; d: D form. The star is where a group is joined. PABC = O=C(OCc1ccc(N[*:1])cc1)[*:2]; hPhe = N[C@@H](CCc1ccccc1)C(=O)O; Boc = CC(C)(C)OC(=O)*; Nlys = NCCCCNCC(=O)O; X2 = CC(=O)NN*

Experiments:
[1] = mouse, in vivo, iv
Procedure: (§1) Mice were fed a high-fat diet to accelerate plaque formation and compounds were tested in the mice between 37-41 weeks on diet. Test compounds were radiolabeled (^14C, ^99mTc, or ^111In as described above) and administered at 0.02-4.0 mCi/kg to anesthetized mice in a single, bolus injection via the tail vein. Blood samples were collected via the tail between 0-30 minutes postinjection for pharmacokinetic analysis and mice were euthanized by CO2 at 60 minutes for tissue harvesting. The aorta were flushed with saline through the left ventricle exiting via the femoral vein. The aorta were then removed from the heart to the renal bifurcation and additional tissue samples collected (blood, muscle, liver, kidney, heart, lung, spleen and innominate artery). All samples were weighed and assayed for radioactivity. Tissue uptake is expressed as percent of injected dose per gram of tissue (% ID/g). The aorta to blood ratios were calculated from the % ID/g data.

[2] = test system: aorta of apolipoprotein E (apoE) knockout mouse; conditions: in vivo
Procedure: as §1

tissue uptake at 1 h [1]: 2.1 %ID/g
Aorta/Blood Ratio [2]: 1.9
SMILES: CC(=O)NNC(=O)[C@@H](CC(C)C)NC(=O)OCc1ccc(NC(=O)[C@H](CC(C)C)NC(=O)[C@H](CCc2ccccc2)NC(=O)CN(CCCCNC(=O)OC(C)(C)C)C(=O)[C@H](CC(C)C)NC(=O)[C@@H]2CCCN2C(C)=O)cc1 [Example 142] (Ac-PL[Nlys](Boc)[hPhe]L[PABC][dL]-X2)
